Laboratory results from patent publication US20230348376A1 (TEIJIN PHARMA LIMITED, priority 2020, published 2023).
pEC50: −log10 of the molar value.

Molecular target: T1, human VDR (Homo sapiens, UniProt P11473)
T1 sequence (P11473 1-427): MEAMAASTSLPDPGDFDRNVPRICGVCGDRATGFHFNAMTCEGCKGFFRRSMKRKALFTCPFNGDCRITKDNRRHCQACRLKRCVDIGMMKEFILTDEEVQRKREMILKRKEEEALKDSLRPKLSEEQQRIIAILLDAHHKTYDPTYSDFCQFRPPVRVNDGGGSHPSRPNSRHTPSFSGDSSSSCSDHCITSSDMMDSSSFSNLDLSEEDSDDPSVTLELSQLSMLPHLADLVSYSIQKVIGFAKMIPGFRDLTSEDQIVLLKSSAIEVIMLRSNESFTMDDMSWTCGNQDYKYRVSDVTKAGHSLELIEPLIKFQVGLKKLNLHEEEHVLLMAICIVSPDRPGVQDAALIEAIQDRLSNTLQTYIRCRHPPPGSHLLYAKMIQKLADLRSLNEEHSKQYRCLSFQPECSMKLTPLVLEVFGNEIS
T1 sequence (P19793 1-462 partner): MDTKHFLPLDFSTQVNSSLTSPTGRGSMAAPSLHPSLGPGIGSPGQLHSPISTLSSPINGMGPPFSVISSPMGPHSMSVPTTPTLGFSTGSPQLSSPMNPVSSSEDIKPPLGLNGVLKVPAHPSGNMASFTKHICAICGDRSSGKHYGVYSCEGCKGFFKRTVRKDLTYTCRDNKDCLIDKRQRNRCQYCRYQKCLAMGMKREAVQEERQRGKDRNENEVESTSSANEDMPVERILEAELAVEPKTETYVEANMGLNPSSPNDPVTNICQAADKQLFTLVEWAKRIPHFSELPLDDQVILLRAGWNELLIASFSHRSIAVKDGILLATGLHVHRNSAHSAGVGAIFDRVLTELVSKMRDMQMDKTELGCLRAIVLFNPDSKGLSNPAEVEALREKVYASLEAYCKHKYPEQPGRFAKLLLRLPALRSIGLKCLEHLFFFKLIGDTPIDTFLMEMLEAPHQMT
Experiment: Evaluation of VDR transcription activity in human osteoblasts (HOS cells), luciferase reporter
Settings: Activity (EC50, VDR transcription activity), HOS cells transfected with human VDR, human RXRα and DR3 luciferase reporter; 21 hours

SMILES | pEC50
C=C1/C(=C\C=C2/CCC[C@]3(C)[C@@H]([C@H](C)CN4CC[C@@H](C(C)(F)F)C4)CC[C@@H]23)C[C@@H](O)[C@H](C)[C@@H]1O [Compound B033, (1R,2S,3S,Z)-5-(2-((1R,3aS,7aR,E)-1-((S)-1-((R)-3-(1,1-difluoroethyl)pyrrolidin-1-yl)propan-2-yl)-7a-methyloctahydro-4H-inden-4-ylidene)ethylidene)-2-methyl-4-methylenecyclohexane-1,3-diol] | 8.00 to 9.00
C=C1[C@H](O)CC(=C/C=C2\CCC[C@]3(C)[C@@H]([C@H](C)CN4CC[C@@H](C(C)(F)F)C4)CC[C@@H]23)C[C@H]1O [Compound B035, (1R,3R)-5-(2-((1R,3aS,7aR,E)-1-((S)-1-((R)-3-(1,1-difluoroethyl)pyrrolidin-1-yl)propan-2-yl)-7a-methyloctahydro-4H-inden-4-ylidene)ethylidene)-2-methylenecyclohexane-1,3-diol] | 8.00 to 9.00
C=C1/C(=C\C=C2/CCC[C@]3(C)[C@@H]([C@H](C)CN4CC[C@H](CC(F)F)C4)CC[C@@H]23)C[C@@H](O)[C@H](C)[C@@H]1O [Compound B038, (1R,2S,3S,Z)-5-(2-((1R,3aS,7aR,E)-1-((S)-1-((R)-3-(2,2-difluoroethyl)pyrrolidin-1-yl)propan-2-yl)-7a-methyloctahydro-4H-inden-4-ylidene)ethylidene)-2-methyl-4-methylenecyclohexane-1,3-diol] | 7.00 to 8.00
C=C1/C(=C\C=C2/CCC[C@]3(C)[C@@H]([C@H](C)CN4CC[C@@H](CC(F)F)C4)CC[C@@H]23)C[C@@H](O)[C@H](C)[C@@H]1O [Compound B039, (1R,2S,3S,Z)-5-(2-((1R,3aS,7aR,E)-1-((S)-1-((S)-3-(2,2-difluoroethyl)pyrrolidin-1-yl)propan-2-yl)-7a-methyloctahydro-4H-inden-4-ylidene)ethylidene)-2-methyl-4-methylenecyclohexane-1,3-diol] | 8.00 to 9.00
C=C1[C@H](O)CC(=C/C=C2\CCC[C@]3(C)[C@@H]([C@H](C)CN4CC[C@H](OC(F)F)C4)CC[C@@H]23)C[C@H]1O [Compound B049, (1R,3R)-5-(2-((1R,3aS,7aR,E)-1-((S)-1-((S)-3-(difluoromethoxy)pyrrolidin-1-yl)propan-2-yl)-7a-methyloctahydro-4H-inden-4-ylidene)ethylidene)-2-methylenecyclohexane-1,3-diol] | 8.00 to 9.00
C=C1[C@H](O)CC(=C/C=C2\CCC[C@]3(C)[C@@H]([C@H](C)CN4CC[C@@H](OC(F)F)C4)CC[C@@H]23)C[C@H]1O [Compound B050, (1R,3R)-5-(2-((1R,3aS,7aR,E)-1-((S)-1-((R)-3-(difluoromethoxy)pyrrolidin-1-yl)propan-2-yl)-7a-methyloctahydro-4H-inden-4-ylidene)ethylidene)-2-methylenecyclohexane-1,3-diol] | 8.00 to 9.00
C[C@H](CN1CC[C@@H](OC(F)F)C1)[C@H]1CC[C@H]2/C(=C/C=C3C[C@@H](O)C[C@H](O)C3)CCC[C@]12C [Compound B052, (1R,3R)-5-(2-((1R,3aS,7aR,E)-1-((S)-1-((R)-3-(difluoromethoxy)pyrrolidin-1-yl)propan-2-yl)-7a-methyloctahydro-4H-inden-4-ylidene)ethylidene)cyclohexane-1,3-diol] | 7.00 to 8.00
C=C1/C(=C\C=C2/CCC[C@]3(C)[C@@H]([C@H](C)CN4CC[C@H](OCC(F)F)C4)CC[C@@H]23)C[C@@H](O)C[C@@H]1O [Compound B053, (1R,3S,Z)-5-(2-((1R,3aS,7aR,E)-1-((S)-1-((S)-3-(2,2-difluoroethoxy)pyrrolidin-1-yl)propan-2-yl)-7a-methyloctahydro-4H-inden-4-ylidene)ethylidene)-4-methylenecyclohexane-1,3-diol] | 7.00 to 8.00
C=C1/C(=C\C=C2/CCC[C@]3(C)[C@@H]([C@H](C)CN4CC[C@@H](OCC(F)F)C4)CC[C@@H]23)C[C@@H](O)C[C@@H]1O [Compound B054, (1R,3S,Z)-5-(2-((1R,3aS,7aR,E)-1-((S)-1-((R)-3-(2,2-difluoroethoxy)pyrrolidin-1-yl)propan-2-yl)-7a-methyloctahydro-4H-inden-4-ylidene)ethylidene)-4-methylenecyclohexane-1,3-diol] | 7.00 to 8.00
C=C1[C@H](O)CC(=C/C=C2\CCC[C@]3(C)[C@@H]([C@H](C)CN4CC[C@@H](OCC(F)F)C4)CC[C@@H]23)C[C@H]1O [Compound B056, (1R,3R)-5-(2-((1R,3aS,7aR,E)-1-((S)-1-((R)-3-(2,2-difluoroethoxy)pyrrolidin-1-yl)propan-2-yl)-7a-methyloctahydro-4H-inden-4-ylidene)ethylidene)-2-methylenecyclohexane-1,3-diol] | 7.00 to 8.00
C=C1/C(=C\C=C2/CCC[C@]3(C)[C@@H]([C@H](C)CN4CC[C@@H](CCC(F)F)C4)CC[C@@H]23)C[C@@H](O)C[C@@H]1O [Compound B060, (1R,3S,Z)-5-(2-((1R,3aS,7aR,E)-1-((S)-1-((R)-3-(3,3-difluoropropyl)pyrrolidin-1-yl)propan-2-yl)-7a-methyloctahydro-4H-inden-4-ylidene)ethylidene)-4-methylenecyclohexane-1,3-diol] | 7.00 to 8.00
C[C@H](CN1CC[C@H](CCC(F)F)C1)[C@H]1CC[C@H]2/C(=C/C=C3C[C@@H](O)C[C@H](O)C3)CCC[C@]12C [Compound B063, (1R,3R)-5-(2-((1R,3aS,7aR,E)-1-((S)-1-((S)-3-(3,3-difluoropropyl)pyrrolidin-1-yl)propan-2-yl)-7a-methyloctahydro-4H-inden-4-ylidene)ethylidene)cyclohexane-1,3-diol] | 7.00 to 8.00
C=C1/C(=C\C=C2/CCC[C@]3(C)[C@@H]([C@H](C)CN4CC[C@H](OC(F)(F)F)C4)CC[C@@H]23)C[C@@H](O)C[C@@H]1O [Compound B065, (1R,3S,Z)-5-(2-((1R,3aS,7aR,E)-7a-methyl-1-((S)-1-((S)-3-(trifluoromethoxy)pyrrolidin-1-yl)propan-2-yl)octahydro-4H-inden-4-ylidene)ethylidene)-4-methylenecyclohexane-1,3-diol] | 7.00 to 8.00
C=C1/C(=C\C=C2/CCC[C@]3(C)[C@@H]([C@H](C)CN4CC[C@@H](OC(F)(F)F)C4)CC[C@@H]23)C[C@@H](O)C[C@@H]1O [Compound B066, (1R,3S,Z)-5-(2-((1R,3aS,7aR,E)-7a-methyl-1-((S)-1-((R)-3-(trifluoromethoxy)pyrrolidin-1-yl)propan-2-yl)octahydro-4H-inden-4-ylidene)ethylidene)-4-methylenecyclohexane-1,3-diol] | 7.00 to 8.00
C=C1/C(=C\C=C2/CCC[C@]3(C)[C@@H]([C@H](C)CN4CC[C@](C)(O)C4)CC[C@@H]23)C[C@@H](O)C[C@@H]1O [Compound B071, (1R,3S,Z)-5-(2-((1R,3aS,7aR,E)-1-((S)-1-((S)-3-hydroxy-3-methylpyrrolidin-1-yl)propan-2-yl)-7a-methyloctahydro-4H-inden-4-ylidene)ethylidene)-4-methylenecyclohexane-1,3-diol] | 7.00 to 8.00
C=C1/C(=C\C=C2/CCC[C@]3(C)[C@@H]([C@H](C)CN4CC[C@@](C)(O)C4)CC[C@@H]23)C[C@@H](O)C[C@@H]1O [Compound B074, (1R,3S,Z)-5-(2-((1R,3aS,7aR,E)-1-((S)-1-((R)-3-hydroxy-3-methylpyrrolidin-1-yl)propan-2-yl)-7a-methyloctahydro-4H-inden-4-ylidene)ethylidene)-4-methylenecyclohexane-1,3-diol] | 6.00 to 7.00
C=C1[C@H](O)CC(=C/C=C2\CCC[C@]3(C)[C@@H]([C@H](C)CN4CCC(O)(C5CC5)C4)CC[C@@H]23)C[C@H]1O (stereo partly drawn) [Compound B077, (1R,3R)-5-(2-((1R,3aS,7aR,E)-1-((2S)-1-(3-cyclopropyl-3-hydroxypyrrolidin-1-yl)propan-2-yl)-7a-methyloctahydro-4H-inden-4-ylidene)ethylidene)-2-methylenecyclohexane-1,3-diol] | 7.00 to 8.00
C[C@H](CCN1CC[C@H](C(F)F)C1)[C@H]1CC[C@H]2/C(=C/C=C3C[C@@H](O)C[C@H](O)C3)CCC[C@]12C [Compound B080, (1R,3R)-5-(2-((1R,3aS,7aR,E)-1-((R)-4-((S)-3-(difluoromethyl)pyrrolidin-1-yl)butan-2-yl)-7a-methyloctahydro-4H-inden-4-ylidene)ethylidene)cyclohexane-1,3-diol] | 7.00 to 8.00
C[C@H](CCN1CC[C@@H](C(F)F)C1)[C@H]1CC[C@H]2/C(=C/C=C3C[C@@H](O)C[C@H](O)C3)CCC[C@]12C [Compound B081, (1R,3R)-5-(2-((1R,3aS,7aR,E)-1-((R)-4-((R)-3-(difluoromethyl)pyrrolidin-1-yl)butan-2-yl)-7a-methyloctahydro-4H-inden-4-ylidene)ethylidene)cyclohexane-1,3-diol] | 7.00 to 8.00
